Tests used:
a1A = a1A (Homo sapiens (Human), UniProt P35348); experiment: radioligand competition binding assay (Psychiatric Drug Screening Program)
D5 = D5 (Homo sapiens (Human), UniProt P21918); experiment: as above
5-HT2B = 5-HT2B (Homo sapiens (Human), UniProt P41595); details: % of the Rmax of 5-HT; cited from earlier work
5-HT5A = 5-HT5A (Homo sapiens (Human), UniProt P47898); experiment: radioligand competition binding assay (Psychiatric Drug Screening Program)
5-HT1B = 5-HT1B (Homo sapiens (Human), UniProt P28222); experiment: as above
5-HT1B, sequence (P28222 whole entry, looked up, species assumed): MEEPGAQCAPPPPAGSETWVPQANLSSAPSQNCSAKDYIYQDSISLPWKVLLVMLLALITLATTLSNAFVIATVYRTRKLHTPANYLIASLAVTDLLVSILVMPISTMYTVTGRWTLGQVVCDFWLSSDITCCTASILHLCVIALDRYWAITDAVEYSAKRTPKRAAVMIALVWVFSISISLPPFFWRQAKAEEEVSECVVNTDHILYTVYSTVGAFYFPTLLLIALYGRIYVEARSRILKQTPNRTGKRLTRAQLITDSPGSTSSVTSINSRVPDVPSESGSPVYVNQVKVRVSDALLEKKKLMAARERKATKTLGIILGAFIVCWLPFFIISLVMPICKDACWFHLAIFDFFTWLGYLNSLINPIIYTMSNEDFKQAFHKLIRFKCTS

5-HT1D = 5-HT1D (Homo sapiens (Human), UniProt P28221); experiment: as above
5-HT1D, sequence (P28221 whole entry, looked up, species assumed): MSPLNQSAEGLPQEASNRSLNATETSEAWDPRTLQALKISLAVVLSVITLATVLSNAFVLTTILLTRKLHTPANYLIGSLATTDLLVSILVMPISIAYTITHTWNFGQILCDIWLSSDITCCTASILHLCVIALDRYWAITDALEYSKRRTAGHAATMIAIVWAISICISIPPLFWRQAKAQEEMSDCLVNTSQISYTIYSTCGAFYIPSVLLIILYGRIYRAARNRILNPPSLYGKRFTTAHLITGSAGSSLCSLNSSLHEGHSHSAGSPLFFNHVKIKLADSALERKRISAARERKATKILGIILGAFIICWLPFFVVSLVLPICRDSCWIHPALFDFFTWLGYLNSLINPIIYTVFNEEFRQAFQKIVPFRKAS

5-HT2C = details: cited from earlier work
a2A = a2A (Homo sapiens (Human), UniProt P08913); experiment: radioligand competition binding assay (Psychiatric Drug Screening Program)
a2A, sequence (P08913 whole entry, looked up): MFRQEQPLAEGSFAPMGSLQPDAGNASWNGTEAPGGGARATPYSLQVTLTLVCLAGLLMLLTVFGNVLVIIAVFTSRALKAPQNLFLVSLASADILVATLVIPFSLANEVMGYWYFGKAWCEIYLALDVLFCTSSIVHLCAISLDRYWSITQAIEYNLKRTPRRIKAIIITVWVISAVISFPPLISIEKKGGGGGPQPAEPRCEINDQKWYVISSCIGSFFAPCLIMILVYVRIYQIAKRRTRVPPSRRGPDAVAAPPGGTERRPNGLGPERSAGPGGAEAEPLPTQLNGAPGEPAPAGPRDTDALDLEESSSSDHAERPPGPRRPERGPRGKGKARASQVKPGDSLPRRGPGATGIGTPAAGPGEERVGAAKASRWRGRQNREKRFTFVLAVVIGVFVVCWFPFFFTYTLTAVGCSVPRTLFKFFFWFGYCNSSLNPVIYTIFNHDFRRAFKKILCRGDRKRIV

D2 = D2 (Homo sapiens (Human), UniProt P14416); experiment: as above
D1 = D1 (Homo sapiens (Human), UniProt P21728); experiment: as above
D4 = D4 (Homo sapiens (Human), UniProt P21917); experiment: as above
5-HT7 = 5-HT7 (Homo sapiens (Human), UniProt P34969); experiment: as above
5-HT7, sequence (P34969 whole entry, looked up, species assumed): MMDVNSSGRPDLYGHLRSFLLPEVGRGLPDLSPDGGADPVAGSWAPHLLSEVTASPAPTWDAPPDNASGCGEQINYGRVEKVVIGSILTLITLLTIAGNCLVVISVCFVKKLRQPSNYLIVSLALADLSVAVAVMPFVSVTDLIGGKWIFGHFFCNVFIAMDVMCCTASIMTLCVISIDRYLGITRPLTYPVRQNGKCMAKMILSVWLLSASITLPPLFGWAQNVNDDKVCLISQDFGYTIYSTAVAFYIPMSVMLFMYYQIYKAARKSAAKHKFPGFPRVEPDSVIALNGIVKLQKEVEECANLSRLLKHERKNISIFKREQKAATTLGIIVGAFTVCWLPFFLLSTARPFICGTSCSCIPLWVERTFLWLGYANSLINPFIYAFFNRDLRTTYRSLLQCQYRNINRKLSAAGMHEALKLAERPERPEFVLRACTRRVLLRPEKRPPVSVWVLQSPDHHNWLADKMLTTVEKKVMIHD

5-HT1A = 5-HT1A (Homo sapiens (Human), UniProt P08908); experiment: as above
5-HT2A = details: cited from earlier work
a2C = a2C (Homo sapiens (Human), UniProt P18825); experiment: radioligand competition binding assay (Psychiatric Drug Screening Program)
a2C, sequence (P18825 whole entry, looked up): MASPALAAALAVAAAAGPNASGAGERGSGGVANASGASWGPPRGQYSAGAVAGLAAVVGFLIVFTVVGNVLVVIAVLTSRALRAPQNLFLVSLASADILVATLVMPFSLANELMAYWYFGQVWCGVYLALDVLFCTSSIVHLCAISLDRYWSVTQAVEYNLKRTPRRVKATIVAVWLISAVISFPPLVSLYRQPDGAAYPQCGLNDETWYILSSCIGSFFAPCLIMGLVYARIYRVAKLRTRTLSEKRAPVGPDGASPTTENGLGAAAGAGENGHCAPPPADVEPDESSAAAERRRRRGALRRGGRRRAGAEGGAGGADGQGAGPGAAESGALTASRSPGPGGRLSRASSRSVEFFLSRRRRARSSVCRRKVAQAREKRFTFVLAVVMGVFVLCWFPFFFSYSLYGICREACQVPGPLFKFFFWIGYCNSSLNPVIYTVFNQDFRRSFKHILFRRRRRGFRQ

D3 = D3 (Homo sapiens (Human), UniProt P35462); experiment: as above
D3, sequence (P35462 whole entry, looked up): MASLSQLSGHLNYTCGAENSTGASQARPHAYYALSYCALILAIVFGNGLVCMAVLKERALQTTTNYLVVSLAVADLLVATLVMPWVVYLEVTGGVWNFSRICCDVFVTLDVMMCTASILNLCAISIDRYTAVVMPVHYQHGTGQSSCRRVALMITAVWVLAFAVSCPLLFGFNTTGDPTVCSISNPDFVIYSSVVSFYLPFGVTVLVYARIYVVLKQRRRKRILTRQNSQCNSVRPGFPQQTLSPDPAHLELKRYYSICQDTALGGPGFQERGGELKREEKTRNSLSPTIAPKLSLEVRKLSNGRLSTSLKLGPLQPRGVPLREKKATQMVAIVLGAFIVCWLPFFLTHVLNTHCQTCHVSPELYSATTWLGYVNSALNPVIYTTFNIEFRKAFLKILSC

a1B = a1B (Homo sapiens (Human), UniProt P35368); experiment: as above
a1B, sequence (P35368 whole entry, looked up): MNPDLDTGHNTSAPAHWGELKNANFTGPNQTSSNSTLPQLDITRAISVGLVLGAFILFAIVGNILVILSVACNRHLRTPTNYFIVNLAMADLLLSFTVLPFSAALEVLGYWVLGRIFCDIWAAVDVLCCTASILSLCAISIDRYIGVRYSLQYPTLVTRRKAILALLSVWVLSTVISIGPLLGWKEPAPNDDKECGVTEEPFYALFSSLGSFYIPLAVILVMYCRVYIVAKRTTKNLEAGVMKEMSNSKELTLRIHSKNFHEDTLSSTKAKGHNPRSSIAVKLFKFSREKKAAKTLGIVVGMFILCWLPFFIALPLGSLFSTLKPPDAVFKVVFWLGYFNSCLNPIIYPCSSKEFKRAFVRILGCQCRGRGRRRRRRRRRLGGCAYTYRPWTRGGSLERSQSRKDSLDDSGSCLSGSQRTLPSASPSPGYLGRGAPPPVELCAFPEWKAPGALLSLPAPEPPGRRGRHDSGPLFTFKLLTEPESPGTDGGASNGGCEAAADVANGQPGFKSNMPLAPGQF

5-HT1e = 5-HT1e (Homo sapiens (Human), UniProt P28566); experiment: as above
5-HT1e, sequence (P28566 whole entry, looked up, species assumed): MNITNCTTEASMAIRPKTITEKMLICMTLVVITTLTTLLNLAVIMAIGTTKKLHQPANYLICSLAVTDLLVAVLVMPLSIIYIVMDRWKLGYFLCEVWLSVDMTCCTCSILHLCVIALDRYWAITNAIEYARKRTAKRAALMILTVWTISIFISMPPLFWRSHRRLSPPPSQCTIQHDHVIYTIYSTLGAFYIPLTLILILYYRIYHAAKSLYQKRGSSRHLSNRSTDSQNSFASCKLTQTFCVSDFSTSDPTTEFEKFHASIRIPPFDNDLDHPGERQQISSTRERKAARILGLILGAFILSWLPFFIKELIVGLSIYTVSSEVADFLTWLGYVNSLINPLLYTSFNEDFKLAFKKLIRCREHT

5-HT6 = 5-HT6 (Homo sapiens (Human), UniProt P50406); experiment: as above
[1] = Rmax ± S.D., % of the Rmax of 5-HT

5-HT5A, sequence (P47898 whole entry, looked up, species assumed): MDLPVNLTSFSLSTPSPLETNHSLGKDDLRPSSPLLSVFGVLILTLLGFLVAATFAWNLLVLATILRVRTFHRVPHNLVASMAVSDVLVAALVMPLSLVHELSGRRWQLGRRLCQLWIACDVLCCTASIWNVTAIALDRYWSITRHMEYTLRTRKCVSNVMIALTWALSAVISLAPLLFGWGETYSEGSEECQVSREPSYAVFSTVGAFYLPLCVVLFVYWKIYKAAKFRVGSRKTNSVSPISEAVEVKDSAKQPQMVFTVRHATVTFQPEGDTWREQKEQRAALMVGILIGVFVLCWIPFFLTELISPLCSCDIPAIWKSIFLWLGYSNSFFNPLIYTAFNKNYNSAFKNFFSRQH
a1A, sequence (P35348 whole entry, looked up): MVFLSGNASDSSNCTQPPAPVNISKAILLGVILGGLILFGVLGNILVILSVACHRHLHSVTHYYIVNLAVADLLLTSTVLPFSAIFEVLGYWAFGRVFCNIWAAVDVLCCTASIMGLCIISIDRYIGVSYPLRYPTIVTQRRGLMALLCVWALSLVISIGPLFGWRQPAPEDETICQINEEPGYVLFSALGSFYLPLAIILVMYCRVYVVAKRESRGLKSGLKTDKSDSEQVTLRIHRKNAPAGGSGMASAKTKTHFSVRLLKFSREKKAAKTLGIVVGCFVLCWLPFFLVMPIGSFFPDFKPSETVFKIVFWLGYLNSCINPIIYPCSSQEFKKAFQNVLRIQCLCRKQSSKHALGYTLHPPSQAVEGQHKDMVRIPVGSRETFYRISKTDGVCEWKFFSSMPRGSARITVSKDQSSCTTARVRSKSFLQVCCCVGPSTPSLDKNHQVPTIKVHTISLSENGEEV
D5, sequence (P21918 whole entry, looked up): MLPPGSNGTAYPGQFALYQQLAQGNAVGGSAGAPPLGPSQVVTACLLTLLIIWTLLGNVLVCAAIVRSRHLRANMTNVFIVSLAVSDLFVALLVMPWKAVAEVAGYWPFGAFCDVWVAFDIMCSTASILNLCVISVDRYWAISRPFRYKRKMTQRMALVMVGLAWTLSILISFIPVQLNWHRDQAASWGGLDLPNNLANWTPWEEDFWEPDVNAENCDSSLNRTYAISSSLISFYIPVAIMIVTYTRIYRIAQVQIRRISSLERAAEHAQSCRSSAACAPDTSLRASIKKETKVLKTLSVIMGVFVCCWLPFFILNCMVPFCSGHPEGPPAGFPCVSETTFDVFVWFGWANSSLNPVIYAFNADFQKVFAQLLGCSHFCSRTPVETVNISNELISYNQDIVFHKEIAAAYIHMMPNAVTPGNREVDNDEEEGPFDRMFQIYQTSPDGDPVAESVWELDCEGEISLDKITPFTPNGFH

Structure (SMILES): CN(C)CCc1c[nH]c2cccc(O)c12 [Psilocin, psilocin]
- Ki (a1A): > 10000 nM
- Ki (D5): > 10000 nM
- Rmax (%) 5-HT2B (5-HT2B): 45%
- Ki (5-HT5A): 70 nM
- Ki (5-HT1B): 305 nM
- Ki (5-HT1D): 19 nM
- EC50 (5-HT2C; EC50 ± S.D.): 30 ± 18 nM
- Rmax (%) 5-HT2C (5-HT2C; [1]): 51 ± 37%
- Ki (a2A): 2000 nM
- Ki (D2): > 10000 nM
- Ki (D1): 20 nM
- Ki (D4): > 10000 nM
- Ki (5-HT7): 72 nM
- Ki (5-HT1A): 63 nM
- Ki (a2C): 4400 nM
- Ki (D3): 100 nM
- Ki (a1B): > 10000 nM
- Ki (5-HT1e): 44 nM
- Ki (5-HT6): 72 nM
